# In ChEMBL document CHEMBL3393039, “Anthranilic acid derivatives as nuclear receptor modulators--development of novel PPAR selective and dual PPAR/FXR ligands” (Bioorg Med Chem, 2015):
# Active and inactive are the calls of the source. No cut-off for these calls is given here.
# Assays:
# [1] = target: T1, Bile acid receptor (Homo sapiens) (UniProt Q96RI1); experiment: Transactivation of human FXR expressed in human HeLa cells at 30 uM incubated for 24 hrs by luciferase reporter gene assay; format: cell-based
# T1 sequence (whole entry): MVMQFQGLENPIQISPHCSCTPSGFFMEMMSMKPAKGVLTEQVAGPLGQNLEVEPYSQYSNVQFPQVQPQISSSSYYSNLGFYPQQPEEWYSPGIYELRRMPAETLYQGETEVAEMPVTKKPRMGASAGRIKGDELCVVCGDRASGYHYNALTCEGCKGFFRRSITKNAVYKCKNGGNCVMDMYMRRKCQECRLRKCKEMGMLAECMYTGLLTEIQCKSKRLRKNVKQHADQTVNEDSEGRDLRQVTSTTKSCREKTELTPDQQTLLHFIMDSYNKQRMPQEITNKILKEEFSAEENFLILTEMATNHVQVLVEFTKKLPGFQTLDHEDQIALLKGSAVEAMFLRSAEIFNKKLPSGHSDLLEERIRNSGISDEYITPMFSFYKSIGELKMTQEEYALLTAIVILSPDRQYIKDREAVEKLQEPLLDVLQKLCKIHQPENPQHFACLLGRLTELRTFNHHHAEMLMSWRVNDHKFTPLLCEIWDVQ
# [2] = target: T2, Peroxisome proliferator-activated receptor gamma (Homo sapiens, UniProt P37231); experiment: Transactivation of Gal4-tagged PPARgamma ligand binding domain (unknown origin) expressed in COS7 cells measured after overnight incubation by luciferase reporter gene assay; format: cell-based, COS-7
# T2 sequence (P37231 whole entry): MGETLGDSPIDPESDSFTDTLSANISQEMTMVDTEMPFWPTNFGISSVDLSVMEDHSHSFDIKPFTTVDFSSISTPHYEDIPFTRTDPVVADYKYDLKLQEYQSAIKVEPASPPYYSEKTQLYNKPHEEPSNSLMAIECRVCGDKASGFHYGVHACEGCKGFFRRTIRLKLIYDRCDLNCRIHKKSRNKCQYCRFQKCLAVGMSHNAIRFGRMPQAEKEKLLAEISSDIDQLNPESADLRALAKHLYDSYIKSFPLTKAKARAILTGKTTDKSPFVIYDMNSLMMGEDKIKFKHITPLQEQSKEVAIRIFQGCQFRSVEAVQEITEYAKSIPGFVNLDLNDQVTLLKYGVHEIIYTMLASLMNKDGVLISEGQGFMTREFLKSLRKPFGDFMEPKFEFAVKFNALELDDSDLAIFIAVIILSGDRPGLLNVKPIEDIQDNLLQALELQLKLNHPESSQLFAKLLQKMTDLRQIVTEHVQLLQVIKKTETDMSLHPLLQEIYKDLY
# [3] = target: T3, Peroxisome proliferator-activated receptor gamma (Homo sapiens) (UniProt P37231); experiment: Transactivation of Gal4-tagged PPARgamma ligand binding domain (unknown origin) expressed in COS7 cells measured after overnight incubation by luciferase reporter gene assay relative to piaglitazone; format: cell-based; settings: Chlorocebus aethiops; COS-7
# T3 sequence (whole entry): T2 sequence (P37231 whole entry)
# [4] = target: T4, Peroxisome proliferator-activated receptor delta (Homo sapiens) (UniProt Q03181); experiment: Transactivation of Gal4-tagged PPARdelta ligand binding domain (unknown origin) expressed in COS7 cells at 30 uM measured after overnight incubation by luciferase reporter gene assay; format: cell-based; settings: COS-7
# T4 sequence (whole entry): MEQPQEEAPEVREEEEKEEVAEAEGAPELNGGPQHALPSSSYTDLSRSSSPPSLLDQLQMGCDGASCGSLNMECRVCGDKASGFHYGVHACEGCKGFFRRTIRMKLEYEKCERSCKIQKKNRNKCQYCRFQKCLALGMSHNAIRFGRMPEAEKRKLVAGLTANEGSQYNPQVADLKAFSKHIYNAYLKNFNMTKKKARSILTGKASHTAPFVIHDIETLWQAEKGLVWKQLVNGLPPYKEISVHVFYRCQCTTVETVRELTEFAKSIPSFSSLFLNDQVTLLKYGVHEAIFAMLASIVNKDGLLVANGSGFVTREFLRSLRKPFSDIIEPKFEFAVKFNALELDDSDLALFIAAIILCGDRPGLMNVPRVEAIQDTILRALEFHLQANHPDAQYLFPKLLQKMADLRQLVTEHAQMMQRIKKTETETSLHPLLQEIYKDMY
# [5] = target: T5, Peroxisome proliferator-activated receptor alpha (Homo sapiens) (UniProt Q07869); experiment: Transactivation of Gal4-tagged PPARalpha ligand binding domain (unknown origin) expressed in COS7 cells at 30 uM measured after overnight incubation by luciferase reporter gene assay; format: cell-based; settings: COS-7
# T5 sequence (whole entry): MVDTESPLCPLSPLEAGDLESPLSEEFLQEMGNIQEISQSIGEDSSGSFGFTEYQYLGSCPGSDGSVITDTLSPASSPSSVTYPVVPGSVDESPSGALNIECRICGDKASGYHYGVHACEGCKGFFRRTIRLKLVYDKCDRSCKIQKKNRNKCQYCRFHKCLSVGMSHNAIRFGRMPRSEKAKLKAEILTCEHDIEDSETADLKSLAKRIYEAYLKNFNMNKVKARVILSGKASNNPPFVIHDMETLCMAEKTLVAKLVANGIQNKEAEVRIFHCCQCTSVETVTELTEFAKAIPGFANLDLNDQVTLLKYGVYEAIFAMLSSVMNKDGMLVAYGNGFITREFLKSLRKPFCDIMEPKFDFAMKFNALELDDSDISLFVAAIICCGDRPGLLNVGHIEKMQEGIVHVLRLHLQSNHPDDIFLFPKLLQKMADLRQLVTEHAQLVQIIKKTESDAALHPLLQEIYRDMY
# [6] = target: T6, Peroxisome proliferator-activated receptor alpha (Homo sapiens, UniProt Q07869); experiment: Transactivation of Gal4-tagged PPARalpha ligand binding domain (unknown origin) expressed in COS7 cells measured after overnight incubation by luciferase reporter gene assay; format: cell-based, COS-7
# T6 sequence (Q07869 whole entry): T5 sequence (whole entry)
# [7] = target: T1, Bile acid receptor (Homo sapiens); experiment: Transactivation of human FXR expressed in human HeLa cells incubated for 24 hrs by luciferase reporter gene assay relative to GW4064; format: cell-based
# [8] = target: T7, Peroxisome proliferator-activated receptor delta (Homo sapiens, UniProt Q03181); experiment: Transactivation of Gal4-tagged PPARdelta ligand binding domain (unknown origin) expressed in COS7 cells measured after overnight incubation by luciferase reporter gene assay; format: cell-based, COS-7
# T7 sequence (Q03181 whole entry): T4 sequence (whole entry)
# [9] = target: T4, Peroxisome proliferator-activated receptor delta (Homo sapiens); experiment: Transactivation of Gal4-tagged PPARdelta ligand binding domain (unknown origin) expressed in COS7 cells measured after overnight incubation by luciferase reporter gene assay relative to L165,041; format: cell-based; settings: Chlorocebus aethiops; COS-7
Structure (SMILES),Activity [1],EC50 [2],max activation [3],Activity [4],Activity [5],EC50 [6],max activation [7],EC50 [8],max activation [9]
O=C(O)CCCNC(=O)c1ccccc1NC(=O)c1ccc(-c2ccccc2)cc1,inactive,13 µM,135%,inactive,inactive,,,,
O=C(O)c1cccc(NC(=O)c2ccccc2NC(=O)c2ccc(C(F)(F)F)cc2)c1,,8.5 µM,384%,,,5.8 µM,26%,3.2 µM,46%
Cc1c(NC(=O)c2ccccc2NC(=O)c2ccc(C(C)(C)C)cc2)cccc1C(=O)O,,13.5 µM,70%,inactive,inactive,,19%,,
O=C(O)CCCNC(=O)c1ccccc1NC(=O)c1ccccc1-c1ccccc1,inactive,23 µM,45%,inactive,inactive,,,,
O=C(O)CCCNC(=O)c1ccccc1NC(=O)c1ccc2ccccc2c1,,18.1 µM,432%,inactive,inactive,,,,
O=C(O)c1cccc(NC(=O)c2ccccc2NC(=O)c2ccc(C(F)(F)F)c(F)c2)c1,,6.9 µM,240%,,,2.2 µM,32%,3 µM,37%
O=C(O)CCCNC(=O)c1ccccc1NC(=O)c1cccc(-c2ccccc2)c1,inactive,37 µM,229%,inactive,,10 µM,,,
CC(C)(C)c1ccc(C(=O)Nc2ccccc2C(=O)Nc2ccc(Br)c(C(=O)O)c2)cc1,,6.3 µM,82%,inactive,,4.1 µM,16%,,
O=C(O)c1cccc(NC(=O)c2ccccc2NC(=O)c2ccc3c(c2)OCO3)c1,,25 µM,221%,inactive,,19 µM,12%,,
O=C(O)CCCCNC(=O)c1ccccc1NC(=O)c1ccc2ccccc2c1,,26 µM,269%,inactive,inactive,,,,
O=C(O)c1ccc(NC(=O)c2ccccc2NC(=O)c2ccc3ccccc3c2)cc1,,21 µM,639%,inactive,inactive,,,,

# Continued, values first:
Activity [1],EC50 [2],max activation [3],Activity [4],Activity [5],EC50 [6],max activation [7],EC50 [8],max activation [9],Structure (SMILES)
,4.4 µM,96%,inactive,,0.74 µM,19%,,,COc1ccc(NC(=O)c2ccccc2NC(=O)c2ccc(C(C)(C)C)cc2)cc1C(=O)O
,5.5 µM,126%,,,1.96 µM,,4.7 µM,51%,O=C(O)c1cccc(NC(=O)c2ccccc2NC(=O)c2ccc3ccccc3c2)c1
,3.9 µM,348%,inactive,,1.3 µM,9.4%,,,CC(C)(C)c1ccc(C(=O)Nc2ccccc2C(=O)Nc2cccc(C(=O)O)c2)cc1
,4.5 µM,58%,,,3.6 µM,14.3%,12 µM,44%,O=C(O)c1cccc(NC(=O)c2ccccc2NC(=O)c2ccc(Br)cc2)c1
,6.2 µM,121%,,,4.4 µM,26%,5.4 µM,46%,CC(C)(C)c1ccc(C(=O)Nc2ccccc2C(=O)Nc2cccc(CC(=O)O)c2)cc1
,5.4 µM,98%,inactive,,9.1 µM,19%,,,CC(C)(C)c1ccc(C(=O)Nc2ccccc2C(=O)Nc2ccc(Cl)c(C(=O)O)c2)cc1
,4.5 µM,154%,inactive,,2.9 µM,15%,,,COc1ccc(C(=O)O)cc1NC(=O)c1ccccc1NC(=O)c1ccc(C(C)(C)C)cc1
